Where two headings read alike, the source gives them in different places.
How the values were obtained:
PDE3 = target: T1, PDE3 (Homo sapiens, UniProt Q14432); assay: In vitro assay for cAMP PDE-3 inhibitory activity; format: biochemical
T1 construct: from tissue; host or cells: human platelets

[1] = target: T2, human recombinant beta-1 receptors (Homo sapiens, UniProt P08588); assay: β1-receptor radioligand binding, [125I] iodocyanopindolol, CHO-REX16 cells; conditions: at 100 nM
T2 construct: expressed in transfected cells; host or cells: CHO-REX16 cells
Protocol: […] receptor binding was measured in human recombinant beta-1 receptors expressed in CHO-REX16 cells, using [^125I] (-) iodocyanopindolol (2000 Ci/mmol) as the radioligand, as described in Kalaria et al., J. Neurochem. 53: 1772-81 (1998), and Minneman et al., Mol. Pharmacol. 16: 34-46 (1979).

[2] = target: T3, human recombinant beta-2 receptors (Homo sapiens, UniProt P07550); assay: β2-receptor radioligand binding, [125I] iodocyanopindolol, CHO-WT21 cells
T3 construct: expressed in transfected cells; host or cells: CHO-WT21 cells
Protocol: (§1) Non-selective β-adrenergic and β1-adrenergic radioligand binding assays were performed using rat cortical membranes; β2-adrenergic receptor assays were performed using membranes isolated from CHO cells expressing human, recombinant b2-adrenergic receptor; non-selective α1-adrenergic receptor assays were performed using rat forebrain membranes; and PDE3 binding assays were performed on human platelets. Values in percent illustrate percent inhibition at 1000 nM concentration.

β1-adrenergic receptor = target: T4, β1-adrenergic receptor (Rattus norvegicus, UniProt P18090); assay: β1-adrenergic radioligand binding assay using rat cortical membranes
T4 construct: from tissue; host or cells: rat cortical membranes
Protocol: as §1

α1-adrenergic receptor = assay: Non-selective α1-adrenergic receptor assay using rat forebrain membranes; format: binding
Protocol: as §1, with “The ability of Compounds 25 and 8c to inhibit PDE3 and β-adrenergic receptor activity was examined both in vitro and in vivo. […] Non-selective” for “Non-selective”

[3] = system: isolated ventricular myocytes; assay: Sarcomere shortening (contractility) in isolated ventricular myocytes; format: cell-based, rabbit
Protocol: […] Isoproterenol, a potent β-Adrenergic agonist, can produce large increases in cardiac contraction, calcium transient amplitude, and the rates of relaxation (acceleration of relaxation or lusitropic effect). The effects of isoproterenol are then antagonized with different concentrations of a compound of the present invention.
Cardiac myocytes were digested from healthy white New Zealand male rabbits (3-5 lbs), with enzymatic digestion. Briefly, each animal is anesthetized with ketamine (50 mg/kg) and xylazine (6 mg/kg)-IM injection in hind limb. Once the animal was sedated (˜10-15 min), 0.1-0.3 ml of pentobarbital was injected into the ear vein. The heart was exposed by a cut just below the rib-cage and bilateral thoracotomy and removed rapidly ensuring that aorta remains intact. The heart was immediately placed in oxygenated NT with Ca^2+ placed on ice for rinsing the blood out, cleared from vessels and pericardium, cannulated and maintained at 37° C. The heart was retrogradedly perfused and tissue digested with collagenase and protease. Digested myocytes were subsequently stored in 0.1 mM Ca^2+ normal tyrodes for further analyses. Sarcomere length changes upon treatment with test compounds were recorded at 37° C. in the presence of 2 mM calcium and analyzed with an IonOptix system. Sarcomere length data was acquired for each myocyte over an average of 10 beats duration, at pacing rates of 1, 2, and 3 Hz. Basal percent sarcomere shortening and length-frequency relation of each myocyte was evaluated, and serve as a measure of cellular viability.
In vitro studies were performed using rabbit ventricular tissue, to examine the effects of Compounds 25 and 8c on myocyte contractility. New Zealand male rabbits (1.5-2.5 kg) were anesthetized with ketamine (50 mg/kg) and xylazine (6 mg/kg)-IM. The heart was exposed and removed rapidly to ensure that the aorta remained intact. The ventricular tissue was digested enzymatically. Sarcomere shortening was measured in the presence of 2 mM calcium at 37° C. using an IonOptix system; reported values were at 2 Hz pacing frequency.

[4] = system: White New Zealand male rabbits; assay: In vivo β-adrenergic blockade, isoproterenol challenge (Protocol 1); set-up: species or system rabbit
Protocol: Studies were performed on White New Zealand male rabbits (2-3 kg weight). Animals were initially anesthetized with ketamine (50 mg/kg; IM) and xylazine (6 mg/kg, IM). Subsequently, animals were intubated (via tracheotomy; 3 mm tube) and ventilated with 2% isoflurane (mixed in 95% O2+5% CO2). Each rabbit was instrumented for LV pressure (3F Millar catheter) through right carotid artery, arterial pressure (3F catheter, Cook Instruments) through left femoral artery, which was connected to a fluid-filled pressure transducer (BD Instruments), and ECG. Both pressure transducers were zeroed against atmospheric pressure, and calibrated before each study using an analog manometer. Upon completion of instrumentation, isoflurane was reduced to 1.25%, and the animal was covered for maintenance of body core temperature. Arterial and LV blood pressures (LVP) and the ECG signals were simultaneously digitally recorded on a PC. The recording system (Gould Instruments) and the corresponding software (Ponema, Gould Instruments) facilitated detailed calculation of various parameters directly from all signals and record on a separate file with a 1 sec resolution. Upon completion of the study protocol, rabbits were euthenized by isoflurane overdose (5% for at least 1 minute) and cardiac arrest through IV infusion of 5 ml 3 molar potassium chloride.
Once the physiological variables were stable, effects of each drug on hemodynamics and ECG were determined based on two different protocols: 1) infusion of a compound of the present invention to determine the effects of the compound itself mainly on contractility, and other hemodynamic indices; and 2) infusion of a compound of the present invention while the system was challenged with 0.5 ug/kg isoproterenol to determine the beta-adrenergic antagonism properties of each tested compound.
White New Zealand male rabbits (2-3 kg) were anesthetized and ventilated (95% O2+5% CO2) with 1.25% isoflurane. Each animal was instrumented for LV pressure (Millar, through left carotid artery), arterial pressure (left femoral artery), infusion (jugular vein), and electrocardiogram. The animals were administered intravenously based on one of these protocols:
Protocol 1: β-adrenergic blockade (isoproterenol challenge).

[5] = Compound 25 0.3 mg/kg, carvedilol 0.1 mg/kg, Protocol 1, FIG. 13

T1 sequence (Q14432 whole entry): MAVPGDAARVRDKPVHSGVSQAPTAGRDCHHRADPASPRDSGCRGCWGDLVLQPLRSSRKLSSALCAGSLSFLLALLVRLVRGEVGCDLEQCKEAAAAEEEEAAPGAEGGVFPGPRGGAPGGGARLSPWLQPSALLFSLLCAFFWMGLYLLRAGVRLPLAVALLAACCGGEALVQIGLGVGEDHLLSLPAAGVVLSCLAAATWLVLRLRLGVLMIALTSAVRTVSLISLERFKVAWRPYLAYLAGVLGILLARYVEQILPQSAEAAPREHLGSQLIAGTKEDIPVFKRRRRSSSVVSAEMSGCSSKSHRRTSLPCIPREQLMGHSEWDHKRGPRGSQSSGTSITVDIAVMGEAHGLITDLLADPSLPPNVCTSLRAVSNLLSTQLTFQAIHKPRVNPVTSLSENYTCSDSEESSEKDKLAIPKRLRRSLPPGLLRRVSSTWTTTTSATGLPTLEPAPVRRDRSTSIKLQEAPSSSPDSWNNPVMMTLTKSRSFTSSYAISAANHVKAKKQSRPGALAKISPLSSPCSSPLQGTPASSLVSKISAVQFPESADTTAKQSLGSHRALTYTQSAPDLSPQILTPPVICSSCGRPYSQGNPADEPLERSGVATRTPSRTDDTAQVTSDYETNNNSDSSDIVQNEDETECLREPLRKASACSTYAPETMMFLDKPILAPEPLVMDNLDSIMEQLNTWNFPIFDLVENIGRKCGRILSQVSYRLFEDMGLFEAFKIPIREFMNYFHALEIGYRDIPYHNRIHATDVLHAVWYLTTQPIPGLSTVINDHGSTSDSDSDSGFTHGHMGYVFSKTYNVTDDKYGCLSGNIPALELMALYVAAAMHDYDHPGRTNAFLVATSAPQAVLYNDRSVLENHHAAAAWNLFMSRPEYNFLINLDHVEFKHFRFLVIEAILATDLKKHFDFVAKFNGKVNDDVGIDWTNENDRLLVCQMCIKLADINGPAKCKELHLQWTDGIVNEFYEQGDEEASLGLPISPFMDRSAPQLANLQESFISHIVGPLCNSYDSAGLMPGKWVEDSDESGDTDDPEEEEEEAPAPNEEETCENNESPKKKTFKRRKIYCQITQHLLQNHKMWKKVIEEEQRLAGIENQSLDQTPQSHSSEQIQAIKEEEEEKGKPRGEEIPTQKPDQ
T3 sequence (P07550 whole entry): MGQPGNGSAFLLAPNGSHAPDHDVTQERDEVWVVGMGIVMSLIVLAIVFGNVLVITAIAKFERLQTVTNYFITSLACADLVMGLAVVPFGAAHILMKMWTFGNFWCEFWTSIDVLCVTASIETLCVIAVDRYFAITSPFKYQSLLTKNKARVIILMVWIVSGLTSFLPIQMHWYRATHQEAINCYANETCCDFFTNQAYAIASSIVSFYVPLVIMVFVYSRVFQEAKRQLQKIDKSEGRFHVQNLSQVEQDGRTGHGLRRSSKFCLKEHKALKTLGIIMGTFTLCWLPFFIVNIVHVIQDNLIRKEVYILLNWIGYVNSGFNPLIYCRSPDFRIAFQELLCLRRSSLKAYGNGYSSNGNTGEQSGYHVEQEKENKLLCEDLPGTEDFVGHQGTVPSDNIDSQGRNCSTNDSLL
T2 sequence (P08588 whole entry): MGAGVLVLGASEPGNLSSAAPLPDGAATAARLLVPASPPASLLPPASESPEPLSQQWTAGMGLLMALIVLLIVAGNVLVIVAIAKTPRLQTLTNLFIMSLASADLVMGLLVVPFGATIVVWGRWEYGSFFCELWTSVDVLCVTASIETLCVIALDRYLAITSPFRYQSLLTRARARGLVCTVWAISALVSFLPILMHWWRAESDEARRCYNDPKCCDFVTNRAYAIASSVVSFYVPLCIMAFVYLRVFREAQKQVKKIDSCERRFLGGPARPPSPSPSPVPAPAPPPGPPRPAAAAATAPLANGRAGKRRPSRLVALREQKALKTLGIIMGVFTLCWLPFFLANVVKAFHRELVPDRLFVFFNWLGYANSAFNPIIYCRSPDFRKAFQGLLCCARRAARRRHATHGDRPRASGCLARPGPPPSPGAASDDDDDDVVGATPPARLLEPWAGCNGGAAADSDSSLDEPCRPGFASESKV
T4 sequence (P18090 whole entry): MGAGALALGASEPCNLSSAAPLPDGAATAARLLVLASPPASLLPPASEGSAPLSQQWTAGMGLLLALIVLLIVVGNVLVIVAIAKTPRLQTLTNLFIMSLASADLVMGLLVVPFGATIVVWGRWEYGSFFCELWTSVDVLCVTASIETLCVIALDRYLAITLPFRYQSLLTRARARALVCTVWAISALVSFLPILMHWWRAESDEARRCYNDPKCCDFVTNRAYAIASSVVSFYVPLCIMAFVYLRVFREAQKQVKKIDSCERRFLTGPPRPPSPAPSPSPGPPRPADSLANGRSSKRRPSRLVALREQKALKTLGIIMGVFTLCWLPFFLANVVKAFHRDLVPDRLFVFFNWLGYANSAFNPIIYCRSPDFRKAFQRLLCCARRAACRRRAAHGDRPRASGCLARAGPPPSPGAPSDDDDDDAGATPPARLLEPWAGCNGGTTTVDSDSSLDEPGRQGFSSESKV

IC50 (PDE3; human platelet cyclic AMP phosphodiesterase, bound stated, read-out: PDE3 inhibition IC50): < 1000 nM
IC50 (PDE3; human platelet cyclic AMP phosphodiesterase, bound stated, read-out: PDE IC50 inhibition values): < 100 nM
IC50 (PDE3; human platelets, read-out: PDE3 IC50): 19 nM
inhibition at 0.1 µM [1]: > 25%
inhibition at 0.1 µM ([2]; at 100 nM): > 25%
IC50 ([2]; membranes from CHO cells expressing human recombinant β2-adrenergic receptor): 1 nM
IC50 (β1-adrenergic receptor): 2 nM
IC50 (α1-adrenergic receptor): 349 nM
SMILES: O=C1CCC(c2ccc(OCCNCC(O)COc3cccc4[nH]c5ccccc5c34)c(Cl)c2)=NN1 (racemic) [Compound 25, 6-(4-{2-[3-(9H-Carbazol-4-yloxy)-2-hydroxy-propylamino]-ethoxy}-3-chloro-phenyl)-4,5-dihydro-2H-pyridazin-3-one]
blocking of isoproterenol effect on myocyte contractility ([3]; 0.1 μM isoproterenol): blocking the effects of 0.1 μM isoproterenol
contractility (sarcomere shortening) in isolated ventricular myocytes ([3]; 2 mM calcium, 37° C., 2 Hz pacing frequency): increased contractility
contractility (LV+dP/dtmax) at ED50 [4, 5]: increased contractility
mean arterial pressure (MAP) at ED50 [4, 5]: more potent decrease in mean arterial pressure (MAP) than carvedilol
ED50 ([4]; Oryctolagus cuniculus, isoproterenol challenge (0.5 μg/kg), intravenous, read-out: ED50, dose that diminished isoproterenol-dependent increase in HR by 50%): 0.3 mg/kg
relaxation properties (Tau) at ED50 ([4]; compared to control, Protocol 1, FIG. 13): did not change the relaxation properties (Tau)
β-adrenergic antagonism on heart rate (HR) ([4]; during isoproterenol challenge (0.5 μg/kg), FIG. 11): dose-dependent β-adrenergic antagonism
